# Test results reported in ChEMBL document CHEMBL5625221, “Discovery of indolinone-bearing benzenesulfonamides as new dual carbonic anhydrase and VEGFR-2 inhibitors possessing anticancer and pro-apoptotic properties” (Eur J Med Chem, 2023).
# Legend:
# [1] = biological target: Carbonic anhydrase 9 (Homo sapiens, UniProt Q16790); assay: Inhibition of human carbonic anhydrase 9 assessed as inhibition constant preincubated for 15 mins by phenol red dye based stopped flow CO2 hydration assay
# [2] = biological target: Vascular endothelial growth factor receptor 2 (Homo sapiens, UniProt P35968); assay: Inhibition of VEGFR-2 (unknown origin) using biotinylated poly(Glu-Tyr) at 4:1 ratio as substrate in presence of ATP incubated for 5 mins by ELISA
# Vascular endothelial growth factor receptor 2, sequence (P35968 whole entry): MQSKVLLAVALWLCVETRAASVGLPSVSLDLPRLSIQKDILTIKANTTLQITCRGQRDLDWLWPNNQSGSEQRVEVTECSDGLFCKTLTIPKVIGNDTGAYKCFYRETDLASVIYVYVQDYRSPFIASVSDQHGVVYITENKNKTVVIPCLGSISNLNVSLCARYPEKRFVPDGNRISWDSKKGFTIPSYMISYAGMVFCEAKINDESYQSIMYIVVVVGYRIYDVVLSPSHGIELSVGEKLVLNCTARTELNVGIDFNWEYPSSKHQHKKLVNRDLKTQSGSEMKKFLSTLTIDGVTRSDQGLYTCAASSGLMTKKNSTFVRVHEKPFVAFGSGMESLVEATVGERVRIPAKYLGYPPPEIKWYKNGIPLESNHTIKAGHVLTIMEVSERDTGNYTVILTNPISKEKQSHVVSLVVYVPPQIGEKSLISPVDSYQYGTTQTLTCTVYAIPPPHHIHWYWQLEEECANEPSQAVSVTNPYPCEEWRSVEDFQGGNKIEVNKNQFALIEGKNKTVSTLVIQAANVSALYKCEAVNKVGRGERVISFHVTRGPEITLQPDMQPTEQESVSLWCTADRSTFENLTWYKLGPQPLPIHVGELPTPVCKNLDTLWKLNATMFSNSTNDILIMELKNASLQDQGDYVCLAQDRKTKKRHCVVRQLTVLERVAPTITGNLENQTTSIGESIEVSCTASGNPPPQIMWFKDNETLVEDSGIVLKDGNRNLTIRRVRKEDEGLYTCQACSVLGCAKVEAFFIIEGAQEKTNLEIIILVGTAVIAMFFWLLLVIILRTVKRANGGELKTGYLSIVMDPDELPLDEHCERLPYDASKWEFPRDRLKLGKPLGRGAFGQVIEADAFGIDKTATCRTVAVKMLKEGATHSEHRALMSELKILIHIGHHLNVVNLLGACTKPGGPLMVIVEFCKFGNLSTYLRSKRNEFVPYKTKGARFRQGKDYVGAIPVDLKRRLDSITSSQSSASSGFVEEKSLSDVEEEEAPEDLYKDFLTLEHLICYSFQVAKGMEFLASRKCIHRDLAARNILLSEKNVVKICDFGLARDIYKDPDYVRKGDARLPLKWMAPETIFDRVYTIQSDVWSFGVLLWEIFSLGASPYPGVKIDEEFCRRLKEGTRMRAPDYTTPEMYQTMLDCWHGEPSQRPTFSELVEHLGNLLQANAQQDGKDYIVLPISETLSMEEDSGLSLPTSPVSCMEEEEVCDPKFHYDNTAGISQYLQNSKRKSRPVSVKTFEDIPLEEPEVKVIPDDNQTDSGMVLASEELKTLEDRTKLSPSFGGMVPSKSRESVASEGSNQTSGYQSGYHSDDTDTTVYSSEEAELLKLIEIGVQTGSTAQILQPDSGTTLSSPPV
# [3] = test system: MCF7; assay: cells; settings: Homo sapiens, MCF7, 48 h
# Description: Antiproliferative activity against human MCF7 cells assessed as inhibition of cell growth incubated for 48 hrs by MTT reagent based ELISA
# [4] = test system: MDA-MB-231; assay: cells; settings: Homo sapiens, MDA-MB-231, 48 h
# Description: Antiproliferative activity against human MDA-MB-231 cells assessed as inhibition of cell growth incubated for 48 hrs by MTT reagent based ELISA
# [5] = test system: MDA-MB-231; assay: Induction of apoptosis in human MDA-MB-231 cells assessed as active caspase-3 protein level incubated for 24 hrs by ELISA; format: functional
# [6] = test system: MDA-MB-231; assay: Induction of apoptosis in human MDA-MB-231 cells assessed as decrease in BCL-2 protein level incubated for 24 hrs by ELISA relative to control; format: functional; set-up: scale not given: the % may be the effect or the level left
# [7] = test system: MDA-MB-231; assay: Induction of apoptosis in human MDA-MB-231 cells assessed as Bax protein level incubated for 24 hrs by ELISA; format: functional
# [8] = test system: MDA-MB-231; assay: Induction of apoptosis in human MDA-MB-231 cells assessed as BCL-2 protein level incubated for 24 hrs by ELISA; format: functional
# [9] = test system: MCF7; assay: cells; settings: Homo sapiens, MCF7, 48 h; remark: listed apart in the source
# Description: Antiproliferative activity against human MCF7 cells assessed as inhibition of cell growth incubated for 48 hrs by WST-1 reagent based ELISA
# [10] = test system: HCT-116; assay: cells; settings: Homo sapiens, HCT-116, 48 h
# Description: Antiproliferative activity against human HCT-116 cells assessed as inhibition of cell growth incubated for 48 hrs by WST-1 reagent based ELISA
# [11] = test system: Caco-2; assay: cells; settings: Homo sapiens, Caco-2, 24 h
# Description: Antiproliferative activity against human Caco-2 cells assessed as inhibition of cell growth incubated for 24 hrs by MTS assay
Structure (SMILES),Ki [1] [nM],also measured
NS(=O)(=O)c1ccc(NC(=O)CN2CCCC(C(=O)N/N=C3\C(=O)Nc4cc(Br)ccc43)C2)cc1 (centres undefined),65.9,–
NS(=O)(=O)c1ccc(NC(=O)CN2CCC(C(=O)N/N=C3\C(=O)Nc4ccc(F)cc43)CC2)cc1,6.2,IC50 [2]: 811 nM; IC50 [3]: 29.3 µM; IC50 [4]: 18.9 µM
NS(=O)(=O)c1ccc(NC(=O)CN2CCC(C(=O)NN=C3C(=O)Nc4ccccc43)CC2)cc1,24.8,–
NS(=O)(=O)c1ccc(NC(=O)CN2CCCC(C(=O)N/N=C3\C(=O)Nc4cc(Cl)ccc43)C2)cc1 (centres undefined),22.1,–
CC(C(=O)Nc1ccc(S(N)(=O)=O)cc1)N1CCCC(C(=O)N/N=C2\C(=O)Nc3cc(F)ccc32)C1 (centres undefined),5.1,–
NS(=O)(=O)c1ccc(NC(=O)CN2CCCC(C(=O)NN=C3C(=O)Nc4cc(F)ccc43)C2)cc1 (centres undefined),35.4,–
NS(=O)(=O)c1ccc(NC(=O)CN2CCC(C(=O)N/N=C3\C(=O)N(Cc4ccccc4)c4ccccc43)CC2)cc1,12.8,–
CC(C(=O)Nc1ccc(S(N)(=O)=O)cc1)N1CCCC(C(=O)N/N=C2\C(=O)Nc3ccccc32)C1 (centres undefined),3.6,Activity [5]: 509 pg/mL; IC50 [2]: 204 nM; IC50 [3]: 10 µM; IC50 [4]: 4.08 µM; Activity [6]: 76%; Activity [7]: 265 pg/mL; Activity [8]: 3.31 ng/mL
CC(C(=O)Nc1ccc(S(N)(=O)=O)cc1)N1CCCC(C(=O)N/N=C2\C(=O)Nc3cc([N+](=O)[O-])ccc32)C1 (centres undefined),29.4,–
COc1ccc2c(c1)NC(=O)C2=NNC(=O)C1CCCN(CC(=O)Nc2ccc(S(N)(=O)=O)cc2)C1 (centres undefined),19,–
NS(=O)(=O)c1ccc(NC(=O)CN2CCC(C(=O)NN=C3C(=O)Nc4ccc(Cl)cc43)CC2)cc1,14.3,–
Cc1ccc2c(c1)NC(=O)/C2=N\NC(=O)C1CCCN(CC(=O)Nc2ccc(S(N)(=O)=O)cc2)C1 (centres undefined),15.8,–
NS(=O)(=O)c1ccc(NC(=O)CN2CCC(C(=O)NN=C3C(=O)Nc4ccc(Br)cc43)CC2)cc1,27.9,–
NS(=O)(=O)c1ccc(CC/N=C2\C(=O)Nc3ccc(Cl)cc32)cc1,28.7,IC50 [9]: 23.9 µM; IC50 [10]: 3.67 µM
NS(=O)(=O)c1ccc(NC(=O)CN2CCCC(C(=O)N/N=C3\C(=O)N(Cc4ccccc4)c4ccccc43)C2)cc1 (centres undefined),21.4,–
CC(C(=O)Nc1ccc(S(N)(=O)=O)cc1)N1CCCC(C(=O)N/N=C2\C(=O)N(Cc3ccc(F)cc3)c3ccccc32)C1 (centres undefined),9.8,–
CN1C(=O)/C(=N\NC(=O)C2CCCN(CC(=O)Nc3ccc(S(N)(=O)=O)cc3)C2)c2ccccc21 (centres undefined),33.5,–
COc1ccc2c(c1)NC(=O)C2=NNC(=O)C1CCCN(C(C)C(=O)Nc2ccc(S(N)(=O)=O)cc2)C1 (centres undefined),4.2,IC50 [2]: 358 nM; IC50 [3]: 11.3 µM; IC50 [4]: 7.2 µM
O=C(CN1C(=O)S/C(=C2/C(=O)Nc3ccccc32)C1=O)Nc1ccccc1,–,IC50 [11]: 9.3 µM
CC(C(=O)Nc1ccc(S(N)(=O)=O)cc1)N1CCCC(C(=O)N/N=C2\C(=O)Nc3cc(Br)ccc32)C1 (centres undefined),9.8,–
CC(C(=O)Nc1ccc(S(N)(=O)=O)cc1)N1CCCC(C(=O)N/N=C2\C(=O)N(Cc3ccc(Cl)cc3)c3ccccc32)C1 (centres undefined),19.2,–
NS(=O)(=O)c1ccc(NC(=O)CN2CCCC(C(=O)N/N=C3\C(=O)Nc4ccccc43)C2)cc1 (centres undefined),52.8,–
O=c1[nH]cc(F)c(=O)[nH]1 [FLUOROURACIL],–,IC50 [3]: 5.17 µM; IC50 [4]: 8.7 µM
